Experimental data taken from ChEMBL document CHEMBL4229438, “N-Acylhydrazones as drugs” (Bioorg Med Chem Lett, 2018).
pIC50: −log10 of the molar value. One block for each molecule: values may come before it.

What was measured:
[1] = Half life in patient with solid tumor at 230 mg/m2, iv treated for 30 mins by HPLC-MS analysis; format: ADME, organism-based; settings: human, in vivo
HL-60 [2] = assay: Cytotoxicity against human HL60 cells by MTT assay; format: functional, cell-based
Thoracic aorta = assay: Vasodilatory activity in Wistar rat thoracic aortic rings assessed as inhibition of noradrenaline-induced contraction; format: functional, tissue-based
[3] = target: Muscarinic acetylcholine receptor M3 (Rattus norvegicus, UniProt P08483); assay: Agonist activity at endothelial M3 receptor in Wistar-Kyoto rat thoracic aortic rings assessed as inhibition of phenylephrine-induced contraction; format: functional
Sequence of Muscarinic acetylcholine receptor M3 (P08483 whole entry): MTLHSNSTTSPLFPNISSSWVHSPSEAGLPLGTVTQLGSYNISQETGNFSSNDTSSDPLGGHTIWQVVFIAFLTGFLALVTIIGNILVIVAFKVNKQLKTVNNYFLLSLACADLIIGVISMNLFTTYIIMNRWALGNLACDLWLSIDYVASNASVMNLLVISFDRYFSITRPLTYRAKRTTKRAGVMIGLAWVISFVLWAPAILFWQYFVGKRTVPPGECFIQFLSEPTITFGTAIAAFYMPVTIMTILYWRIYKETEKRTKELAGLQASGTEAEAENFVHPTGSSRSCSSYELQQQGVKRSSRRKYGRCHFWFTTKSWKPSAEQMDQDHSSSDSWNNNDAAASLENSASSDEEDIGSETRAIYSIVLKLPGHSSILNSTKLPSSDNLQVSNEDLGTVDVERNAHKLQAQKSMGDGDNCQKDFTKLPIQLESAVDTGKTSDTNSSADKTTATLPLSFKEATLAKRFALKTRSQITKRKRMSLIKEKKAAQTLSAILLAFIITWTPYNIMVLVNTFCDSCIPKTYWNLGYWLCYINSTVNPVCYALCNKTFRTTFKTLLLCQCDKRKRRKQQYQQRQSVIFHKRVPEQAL

Caspase-3 (Mus musculus) [4] = target: T1, Caspase-3 (Mus musculus) (UniProt P70677); settings: EL4, 10 uM
T1 sequence (whole entry): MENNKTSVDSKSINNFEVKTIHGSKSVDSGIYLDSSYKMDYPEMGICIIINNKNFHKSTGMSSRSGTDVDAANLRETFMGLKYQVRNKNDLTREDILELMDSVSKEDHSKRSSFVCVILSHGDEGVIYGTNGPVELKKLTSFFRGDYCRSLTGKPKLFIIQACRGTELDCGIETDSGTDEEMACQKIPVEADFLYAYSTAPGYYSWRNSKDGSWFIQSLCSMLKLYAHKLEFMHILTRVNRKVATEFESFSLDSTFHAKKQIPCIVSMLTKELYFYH
Description: Activation of procaspase-3 in mouse EL4 cells assessed as increase in cell death by measuring combination index at 10 uM after 24 hrs in presence of 2500 nM doxorubucin by alamar blue assay

Caspase-3 (Mus musculus) [5] = target: T1, Caspase-3 (Mus musculus); settings: EL4, 10 uM; remark: listed apart in the source
Description: Activation of procaspase-3 in mouse EL4 cells assessed as increase in cell death by measuring combination index at 10 uM after 24 hrs in presence of 1500 nM doxorubucin by alamar blue assay

Caspase-3 (Mus musculus) [6] = target: T1, Caspase-3 (Mus musculus); settings: EL4, 10 uM; remark: listed apart in the source
Description: Activation of procaspase-3 in mouse EL4 cells assessed as increase in cell death by measuring combination index at 10 uM after 24 hrs in presence of 1000 nM doxorubucin by alamar blue assay

Caspase-3 (Mus musculus) [7] = target: T1, Caspase-3 (Mus musculus); settings: EL4, 10 uM; remark: listed apart in the source
Description: Activation of procaspase-3 in mouse EL4 cells assessed as increase in cell death by measuring combination index at 10 uM after 24 hrs in presence of 500 nM doxorubucin by alamar blue assay

Caspase-3 (Mus musculus) [8] = target: T1, Caspase-3 (Mus musculus); settings: EL4, 10 uM; remark: listed apart in the source
Description: Activation of procaspase-3 in mouse EL4 cells assessed as increase in cell death by measuring combination index at 10 uM after 24 hrs in presence of 100 nM doxorubucin by alamar blue assay

Caspase-3 (Mus musculus) [9] = target: T1, Caspase-3 (Mus musculus); settings: EL4, 5 uM
Description: Activation of procaspase-3 in mouse EL4 cells assessed as increase in cell death by measuring combination index at 5 uM after 24 hrs in presence of 2500 nM doxorubucin by alamar blue assay

Caspase-3 (Mus musculus) [10] = target: T1, Caspase-3 (Mus musculus); settings: EL4, 5 uM; remark: listed apart in the source
Description: Activation of procaspase-3 in mouse EL4 cells assessed as increase in cell death by measuring combination index at 5 uM after 24 hrs in presence of 1500 nM doxorubucin by alamar blue assay

Caspase-3 (Mus musculus) [11] = target: T1, Caspase-3 (Mus musculus); settings: EL4, 5 uM; remark: listed apart in the source
Description: Activation of procaspase-3 in mouse EL4 cells assessed as increase in cell death by measuring combination index at 5 uM after 24 hrs in presence of 1000 nM doxorubucin by alamar blue assay

Caspase-3 (Mus musculus) [12] = target: T1, Caspase-3 (Mus musculus); settings: EL4, 5 uM; remark: listed apart in the source
Description: Activation of procaspase-3 in mouse EL4 cells assessed as increase in cell death by measuring combination index at 5 uM after 24 hrs in presence of 500 nM doxorubucin by alamar blue assay

Caspase-3 (Mus musculus) [13] = target: T1, Caspase-3 (Mus musculus); settings: EL4, 5 uM; remark: listed apart in the source
Description: Activation of procaspase-3 in mouse EL4 cells assessed as increase in cell death by measuring combination index at 5 uM after 24 hrs in presence of 100 nM doxorubucin by alamar blue assay

Caspase-3 (Mus musculus) [14] = target: T1, Caspase-3 (Mus musculus); settings: 5 uM
Description: Activation of procaspase-3 in mouse K7M2 cells assessed as increase in cell death by measuring combination index at 5 uM after 24 hrs in presence of 250 nM doxorubucin by alamar blue assay

Caspase-3 (Mus musculus) [15] = target: T1, Caspase-3 (Mus musculus); settings: 5 uM; remark: listed apart in the source
Description: Activation of procaspase-3 in mouse K7M2 cells assessed as increase in cell death by measuring combination index at 5 uM after 24 hrs in presence of 100 nM doxorubucin by alamar blue assay

Caspase-3 (Mus musculus) [16] = target: T1, Caspase-3 (Mus musculus); settings: 5 uM; remark: listed apart in the source
Description: Activation of procaspase-3 in mouse K7M2 cells assessed as increase in cell death by measuring combination index at 5 uM after 24 hrs in presence of 50 nM doxorubucin by alamar blue assay

Caspase-3 (Mus musculus) [17] = target: T1, Caspase-3 (Mus musculus); settings: 5 uM; remark: listed apart in the source
Description: Activation of procaspase-3 in mouse K7M2 cells assessed as increase in cell death by measuring combination index at 5 uM after 24 hrs in presence of 10 nM doxorubucin by alamar blue assay

Caspase-3 (Mus musculus) [18] = target: T1, Caspase-3 (Mus musculus); settings: 5 uM; remark: listed apart in the source
Description: Activation of procaspase-3 in mouse K7M2 cells assessed as increase in cell death by measuring combination index at 5 uM after 24 hrs in presence of 25 nM doxorubucin by alamar blue assay

Caspase-3 (Mus musculus) [19] = target: T1, Caspase-3 (Mus musculus); settings: 2.5 uM
Description: Activation of procaspase-3 in mouse K7M2 cells assessed as increase in cell death by measuring combination index at 2.5 uM after 24 hrs in presence of 250 nM doxorubucin by alamar blue assay

Caspase-3 (Mus musculus) [20] = target: T1, Caspase-3 (Mus musculus); settings: 2.5 uM; remark: listed apart in the source
Description: Activation of procaspase-3 in mouse K7M2 cells assessed as increase in cell death by measuring combination index at 2.5 uM after 24 hrs in presence of 100 nM doxorubucin by alamar blue assay

Caspase-3 (Mus musculus) [21] = target: T1, Caspase-3 (Mus musculus); settings: 2.5 uM; remark: listed apart in the source
Description: Activation of procaspase-3 in mouse K7M2 cells assessed as increase in cell death by measuring combination index at 2.5 uM after 24 hrs in presence of 50 nM doxorubucin by alamar blue assay

Caspase-3 (Mus musculus) [22] = target: T1, Caspase-3 (Mus musculus); settings: 2.5 uM; remark: listed apart in the source
Description: Activation of procaspase-3 in mouse K7M2 cells assessed as increase in cell death by measuring combination index at 2.5 uM after 24 hrs in presence of 25 nM doxorubucin by alamar blue assay

Caspase-3 (Mus musculus) [23] = target: T1, Caspase-3 (Mus musculus); settings: 2.5 uM; remark: listed apart in the source
Description: Activation of procaspase-3 in mouse K7M2 cells assessed as increase in cell death by measuring combination index at 2.5 uM after 24 hrs in presence of 10 nM doxorubucin by alamar blue assay

Caspase-3 (Mus musculus) [24] = target: T1, Caspase-3 (Mus musculus); settings: 7.5 uM
Description: Activation of procaspase-3 in mouse B16F10 cells assessed as increase in cell death by measuring combination index at 7.5 uM after 24 hrs in presence of 10 nM doxorubucin by alamar blue assay

Caspase-3 (Mus musculus) [25] = target: T1, Caspase-3 (Mus musculus); settings: 7.5 uM; remark: listed apart in the source
Description: Activation of procaspase-3 in mouse B16F10 cells assessed as increase in cell death by measuring combination index at 7.5 uM after 24 hrs in presence of 25 nM doxorubucin by alamar blue assay

Caspase-3 (Mus musculus) [26] = target: T1, Caspase-3 (Mus musculus); settings: 7.5 uM; remark: listed apart in the source
Description: Activation of procaspase-3 in mouse B16F10 cells assessed as increase in cell death by measuring combination index at 7.5 uM after 24 hrs in presence of 50 nM doxorubucin by alamar blue assay

Caspase-3 (Mus musculus) [27] = target: T1, Caspase-3 (Mus musculus); settings: 7.5 uM; remark: listed apart in the source
Description: Activation of procaspase-3 in mouse B16F10 cells assessed as increase in cell death by measuring combination index at 7.5 uM after 24 hrs in presence of 100 nM doxorubucin by alamar blue assay

Caspase-3 (Mus musculus) [28] = target: T1, Caspase-3 (Mus musculus); settings: 7.5 uM; remark: listed apart in the source
Description: Activation of procaspase-3 in mouse B16F10 cells assessed as increase in cell death by measuring combination index at 7.5 uM after 24 hrs in presence of 250 nM doxorubucin by alamar blue assay

Caspase-3 (Mus musculus) [29] = target: T1, Caspase-3 (Mus musculus); settings: 15 uM
Description: Activation of procaspase-3 in mouse B16F10 cells assessed as increase in cell death by measuring combination index at 15 uM after 24 hrs in presence of 10 nM doxorubucin by alamar blue assay

Caspase-3 (Mus musculus) [30] = target: T1, Caspase-3 (Mus musculus); settings: 15 uM; remark: listed apart in the source
Description: Activation of procaspase-3 in mouse B16F10 cells assessed as increase in cell death by measuring combination index at 15 uM after 24 hrs in presence of 25 nM doxorubucin by alamar blue assay

Caspase-3 (Mus musculus) [31] = target: T1, Caspase-3 (Mus musculus); settings: 15 uM; remark: listed apart in the source
Description: Activation of procaspase-3 in mouse B16F10 cells assessed as increase in cell death by measuring combination index at 15 uM after 24 hrs in presence of 50 nM doxorubucin by alamar blue assay

Caspase-3 (Mus musculus) [32] = target: T1, Caspase-3 (Mus musculus); settings: 15 uM; remark: listed apart in the source
Description: Activation of procaspase-3 in mouse B16F10 cells assessed as increase in cell death by measuring combination index at 15 uM after 24 hrs in presence of 100 nM doxorubucin by alamar blue assay

Caspase-3 (Mus musculus) [33] = target: T1, Caspase-3 (Mus musculus); settings: 15 uM; remark: listed apart in the source
Description: Activation of procaspase-3 in mouse B16F10 cells assessed as increase in cell death by measuring combination index at 15 uM after 24 hrs in presence of 250 nM doxorubucin by alamar blue assay

Caspase-3 (Mus musculus) [34] = target: T1, Caspase-3 (Mus musculus); settings: 4T1, 2.5 uM
Description: Activation of procaspase-3 in mouse 4T1 cells assessed as increase in cell death by measuring combination index at 2.5 uM after 24 hrs in presence of 10 nM doxorubucin by alamar blue assay

Caspase-3 (Mus musculus) [35] = target: T1, Caspase-3 (Mus musculus); settings: 4T1, 2.5 uM; remark: listed apart in the source
Description: Activation of procaspase-3 in mouse 4T1 cells assessed as increase in cell death by measuring combination index at 2.5 uM after 24 hrs in presence of 25 nM doxorubucin by alamar blue assay

Caspase-3 (Mus musculus) [36] = target: T1, Caspase-3 (Mus musculus); settings: 4T1, 2.5 uM; remark: listed apart in the source
Description: Activation of procaspase-3 in mouse 4T1 cells assessed as increase in cell death by measuring combination index at 2.5 uM after 24 hrs in presence of 50 nM doxorubucin by alamar blue assay

Caspase-3 (Mus musculus) [37] = target: T1, Caspase-3 (Mus musculus); settings: 4T1, 2.5 uM; remark: listed apart in the source
Description: Activation of procaspase-3 in mouse 4T1 cells assessed as increase in cell death by measuring combination index at 2.5 uM after 24 hrs in presence of 100 nM doxorubucin by alamar blue assay

Caspase-3 (Mus musculus) [38] = target: T1, Caspase-3 (Mus musculus); settings: 4T1, 2.5 uM; remark: listed apart in the source
Description: Activation of procaspase-3 in mouse 4T1 cells assessed as increase in cell death by measuring combination index at 2.5 uM after 24 hrs in presence of 250 nM doxorubucin by alamar blue assay

Caspase-3 (Mus musculus) [39] = target: T1, Caspase-3 (Mus musculus); settings: 4T1, 5 uM
Description: Activation of procaspase-3 in mouse 4T1 cells assessed as increase in cell death by measuring combination index at 5 uM after 24 hrs in presence of 10 nM doxorubucin by alamar blue assay

Caspase-3 (Mus musculus) [40] = target: T1, Caspase-3 (Mus musculus); settings: 4T1, 5 uM; remark: listed apart in the source
Description: Activation of procaspase-3 in mouse 4T1 cells assessed as increase in cell death by measuring combination index at 5 uM after 24 hrs in presence of 25 nM doxorubucin by alamar blue assay

Caspase-3 (Mus musculus) [41] = target: T1, Caspase-3 (Mus musculus); settings: 4T1, 5 uM; remark: listed apart in the source
Description: Activation of procaspase-3 in mouse 4T1 cells assessed as increase in cell death by measuring combination index at 5 uM after 24 hrs in presence of 50 nM doxorubucin by alamar blue assay

Caspase-3 (Mus musculus) [42] = target: T1, Caspase-3 (Mus musculus); settings: 4T1, 5 uM; remark: listed apart in the source
Description: Activation of procaspase-3 in mouse 4T1 cells assessed as increase in cell death by measuring combination index at 5 uM after 24 hrs in presence of 100 nM doxorubucin by alamar blue assay

Caspase-3 (Mus musculus) [43] = target: T1, Caspase-3 (Mus musculus); settings: 4T1, 5 uM; remark: listed apart in the source
Description: Activation of procaspase-3 in mouse 4T1 cells assessed as increase in cell death by measuring combination index at 5 uM after 24 hrs in presence of 250 nM doxorubucin by alamar blue assay

Caspase-3 (Mus musculus) [44] = target: T1, Caspase-3 (Mus musculus); settings: 2.5 uM; remark: listed apart in the source
Description: Activation of procaspase-3 in mouse 3LL cells assessed as increase in cell death by measuring combination index at 2.5 uM after 24 hrs in presence of 10 nM doxorubucin by alamar blue assay

Caspase-3 (Mus musculus) [45] = target: T1, Caspase-3 (Mus musculus); settings: 2.5 uM; remark: listed apart in the source
Description: Activation of procaspase-3 in mouse 3LL cells assessed as increase in cell death by measuring combination index at 2.5 uM after 24 hrs in presence of 25 nM doxorubucin by alamar blue assay

Caspase-3 (Mus musculus) [46] = target: T1, Caspase-3 (Mus musculus); settings: 2.5 uM; remark: listed apart in the source
Description: Activation of procaspase-3 in mouse 3LL cells assessed as increase in cell death by measuring combination index at 2.5 uM after 24 hrs in presence of 50 nM doxorubucin by alamar blue assay

Caspase-3 (Mus musculus) [47] = target: T1, Caspase-3 (Mus musculus); settings: 2.5 uM; remark: listed apart in the source
Description: Activation of procaspase-3 in mouse 3LL cells assessed as increase in cell death by measuring combination index at 2.5 uM after 24 hrs in presence of 100 nM doxorubucin by alamar blue assay

Caspase-3 (Mus musculus) [48] = target: T1, Caspase-3 (Mus musculus); settings: 2.5 uM; remark: listed apart in the source
Description: Activation of procaspase-3 in mouse 3LL cells assessed as increase in cell death by measuring combination index at 2.5 uM after 24 hrs in presence of 250 nM doxorubucin by alamar blue assay

Caspase-3 (Mus musculus) [49] = target: T1, Caspase-3 (Mus musculus); settings: 7.5 uM; remark: listed apart in the source
Description: Activation of procaspase-3 in mouse 3LL cells assessed as increase in cell death by measuring combination index at 7.5 uM after 24 hrs in presence of 10 nM doxorubucin by alamar blue assay

Caspase-3 (Mus musculus) [50] = target: T1, Caspase-3 (Mus musculus); settings: 7.5 uM; remark: listed apart in the source
Description: Activation of procaspase-3 in mouse 3LL cells assessed as increase in cell death by measuring combination index at 7.5 uM after 24 hrs in presence of 25 nM doxorubucin by alamar blue assay

Caspase-3 (Mus musculus) [51] = target: T1, Caspase-3 (Mus musculus); settings: 7.5 uM; remark: listed apart in the source
Description: Activation of procaspase-3 in mouse 3LL cells assessed as increase in cell death by measuring combination index at 7.5 uM after 24 hrs in presence of 50 nM doxorubucin by alamar blue assay

Caspase-3 (Mus musculus) [52] = target: T1, Caspase-3 (Mus musculus); settings: 7.5 uM; remark: listed apart in the source
Description: Activation of procaspase-3 in mouse 3LL cells assessed as increase in cell death by measuring combination index at 7.5 uM after 24 hrs in presence of 100 nM doxorubucin by alamar blue assay

Caspase-3 (Mus musculus) [53] = target: T1, Caspase-3 (Mus musculus); settings: 7.5 uM; remark: listed apart in the source
Description: Activation of procaspase-3 in mouse 3LL cells assessed as increase in cell death by measuring combination index at 7.5 uM after 24 hrs in presence of 250 nM doxorubucin by alamar blue assay

HL-60 [54] = assay: Cytotoxicity against human HL60 cells; format: functional, cell-based
OVCAR-8 = assay: Cytotoxicity against human OVCAR8 cells; format: functional, cell-based
HCT-8 = assay: Cytotoxicity against human HCT8 cells; format: functional, cell-based
[55] = Stability in rat plasma assessed as parent compound remaining at 100 uM after 10 hrs by LC-MS analysis; format: ADME, cell-free; settings: read-out: Stability

Compound: COc1cc(C(=O)N(C)/N=C/c2ccccc2)cc(OC)c1OC
- pIC50 (HL-60 [2]): 7.52

Compound: COc1cc(C(=O)N/N=C/c2cc3ccccc3s2)cc(OC)c1OC
- pIC50 (HL-60 [54]): 9.40
- pIC50 (OVCAR-8): 8.05
- pIC50 (HCT-8): 8.30

Compound: O=C(N/N=C/c1ccccc1B(O)O)c1ccncc1
- remaining at 10 h, 100 µM [55]: > 93%

Next, values leading:

- half-life [1]: 20.1 to 21.1 h
Compound: COc1cccc2c1C(=O)c1c(O)c3c(c(O)c1C2=O)C[C@@](O)(/C(CO)=N/NC(=O)CCCCCN1C(=O)C=CC1=O)C[C@@H]3OC1C[C@H](N)[C@H](O)[C@H](C)O1 (stereo partly drawn)

- pIC50 (Thoracic aorta): 4.13
Compound: O=C(N/N=C/c1cccs1)c1ccc2c(c1)OCO2

- pIC50 [3]: 6.46
Compound: O=C(N/N=C/c1ccsc1)c1ccc2c(c1)OCO2

- CI (Caspase-3 (Mus musculus) [4]): 0.21 to 61.4
- CI (Caspase-3 (Mus musculus) [5]): 0.37 to 46.7
- CI (Caspase-3 (Mus musculus) [6]): 0.53 to 37
- CI (Caspase-3 (Mus musculus) [7]): 0.69 to 27.7
- CI (Caspase-3 (Mus musculus) [8]): 0.9 to 18.2
- CI (Caspase-3 (Mus musculus) [9]): 0.3 to 55.6
- CI (Caspase-3 (Mus musculus) [10]): 0.63 to 38
- CI (Caspase-3 (Mus musculus) [11]): 0.79 to 30.3
- CI (Caspase-3 (Mus musculus) [12]): 0.77 to 24
- CI (Caspase-3 (Mus musculus) [13]): 1.38 to 11.7
- CI (Caspase-3 (Mus musculus) [14]): 0.67 to 55.9
- CI (Caspase-3 (Mus musculus) [15]): 0.49 to 42.8
- CI (Caspase-3 (Mus musculus) [16]): 0.73 to 26.6
- CI (Caspase-3 (Mus musculus) [17]): 0.56 to 26.4
- CI (Caspase-3 (Mus musculus) [18]): 0.61 to 26.8
- CI (Caspase-3 (Mus musculus) [19]): 0.93 to 39.6
- CI (Caspase-3 (Mus musculus) [20]): 0.66 to 28.1
- CI (Caspase-3 (Mus musculus) [21]): 0.88 to 16.7
- CI (Caspase-3 (Mus musculus) [22]): 0.84 to 15.2
- CI (Caspase-3 (Mus musculus) [23]): 0.97 to 12.8
- CI (Caspase-3 (Mus musculus) [24]): 0.66 to 17.8
- CI (Caspase-3 (Mus musculus) [25]): 0.76 to 18.2
- CI (Caspase-3 (Mus musculus) [26]): 0.84 to 20.1
- CI (Caspase-3 (Mus musculus) [27]): 0.65 to 31
- CI (Caspase-3 (Mus musculus) [28]): 0.42 to 58.2
- CI (Caspase-3 (Mus musculus) [29]): 0.83 to 22.5
- CI (Caspase-3 (Mus musculus) [30]): 0.84 to 23.9
- CI (Caspase-3 (Mus musculus) [31]): 0.72 to 29
- CI (Caspase-3 (Mus musculus) [32]): 0.53 to 40.7
- CI (Caspase-3 (Mus musculus) [33]): 0.39 to 62.2
- CI (Caspase-3 (Mus musculus) [34]): 0.89 to 12.2
- CI (Caspase-3 (Mus musculus) [35]): 0.79 to 15
- CI (Caspase-3 (Mus musculus) [36]): 0.95 to 15.5
- CI (Caspase-3 (Mus musculus) [37]): 0.84 to 21.5
- CI (Caspase-3 (Mus musculus) [38]): 0.47 to 49.7
- CI (Caspase-3 (Mus musculus) [39]): 0.74 to 23.3
- CI (Caspase-3 (Mus musculus) [40]): 0.81 to 23.1
- CI (Caspase-3 (Mus musculus) [41]): 0.86 to 24.1
- CI (Caspase-3 (Mus musculus) [42]): 0.86 to 28
- CI (Caspase-3 (Mus musculus) [43]): 0.42 to 57.2
- CI (Caspase-3 (Mus musculus) [44]): 0.54 to 18.3
- CI (Caspase-3 (Mus musculus) [45]): 0.72 to 20.3
- CI (Caspase-3 (Mus musculus) [46]): 0.71 to 28.9
- CI (Caspase-3 (Mus musculus) [47]): 0.48 to 55.7
- CI (Caspase-3 (Mus musculus) [48]): 0.17 to 79.6
- CI (Caspase-3 (Mus musculus) [49]): 0.36 to 27.8
- CI (Caspase-3 (Mus musculus) [50]): 0.41 to 32.3
- CI (Caspase-3 (Mus musculus) [51]): 0.44 to 41.3
- CI (Caspase-3 (Mus musculus) [52]): 0.32 to 66.8
- CI (Caspase-3 (Mus musculus) [53]): 0.28 to 86.3
Compound: C=CCc1cccc(/C=N/NC(=O)CN2CCN(Cc3ccccc3)CC2)c1O
